Assay results as given in patent publication EP0446124A2, “Use of antiprogestomimetics to synchronise parturition in livestock” (ROUSSEL UCLAF, priority 1990, dated 1991).

Tested on: truies
Assay: Synchronisation of parturition in sows: interval between injection of the active principle and farrowing
Format: in vivo
Conditions: single i.m. injection on day 113 of gestation (Ho = 9 h); for intervalle de temps entre l'injection du principe actif et la mise bas: 20 à 30 H (number of animals) / intervalle de temps entre l'injection du principe actif et la mise bas: 30 à 36 H (number of animals) / intervalle de temps entre l'injection du principe actif et la mise bas: - 20 H (number of animals): produit A 2 mg/kg (n = 24); for intervalle de temps entre l'injection du principe actif et la mise bas: 20 à 30 H (number of animals) / intervalle de temps entre l'injection du principe actif et la mise bas: 20 à 30 H (% des animaux): farrowing 20 to 30 h after injection; for intervalle de temps entre l'injection du principe actif et la mise bas: 30 à 36 H (number of animals) / intervalle de temps entre l'injection du principe actif et la mise bas: 30 à 36 H (% des animaux): farrowing 30 to 36 h after injection; for intervalle de temps entre l'injection du principe actif et la mise bas: - 20 H (number of animals) / intervalle de temps entre l'injection du principe actif et la mise bas: - 20 H (% des animaux): farrowing less than 20 h after injection; for intervalle de temps entre l'injection du principe actif et la mise bas: 20 à 30 H (% des animaux) / intervalle de temps entre l'injection du principe actif et la mise bas: 30 à 36 H (% des animaux) / intervalle de temps entre l'injection du principe actif et la mise bas: - 20 H (% des animaux): produit A 2 mg/kg
Text: L'essai a été réalisé chez des truies. Les truies ont été sélectionnées en fonction des critères suivants : • truies de même origine (même schéma de sélection), • truies de même rang de parturition (3ème), • saillie par le même verrat ou insémination artificielle avec semence de même origine, • nombre de saillies ou d'inséminations identiques, • saillie ou insémination sur première chaleur post-sevrage (intervalle sevrage saillie identique ou très proche), • durée d'allaitement identique.
Les truies sont divisées en 3 lots de n animaux : • un lot témoin ne reçoit aucun produit, • un lot reçoit une injection intra-musculaire de 2 mg/kg de produit A ou 17béta-hydroxy 11béta-(4-diméthylaminophényl) 17alpha-(prop-1-ynyl) estra-4,9-dièn-3-one, le 113ème jour de la gestation, • un lot reçoit une injection intra-musculaire de 175 mcg de cloprosténol sous forme de PLANATE^ R par truie, le 113 ème jour de la gestation.
On a mesuré l'intervalle de temps entre l'injection du principe actif et la mise bas : le tableau suivant résume les résultats obtenus.
1.- Animaux traités (Ho = 9 heures le 113ème jour de gestation.

[1] = cloprosténol 175 mcg per sow (n = 23)

| Compound | intervalle de temps entre l'injection du principe actif et la mise bas: + 36 H (number of animals) (cloprosténol 175 mcg per sow (n = 23), farrowing more than 36 h after injection) | intervalle de temps entre l'injection du principe actif et la mise bas: + 36 H (% des animaux) (cloprosténol 175 mcg per sow, farrowing more than 36 h after injection) | intervalle de temps entre l'injection du principe actif et la mise bas: 20 à 30 H (number of animals) [1] | intervalle de temps entre l'injection du principe actif et la mise bas: 30 à 36 H (number of animals) [1] | intervalle de temps entre l'injection du principe actif et la mise bas: - 20 H (number of animals) [1] | intervalle de temps entre l'injection du principe actif et la mise bas: 20 à 30 H (% des animaux) (cloprosténol 175 mcg per sow) | intervalle de temps entre l'injection du principe actif et la mise bas: 30 à 36 H (% des animaux) (cloprosténol 175 mcg per sow) | intervalle de temps entre l'injection du principe actif et la mise bas: - 20 H (% des animaux) (cloprosténol 175 mcg per sow) |
| --- | --- | --- | --- | --- | --- | --- | --- | --- |
| O=C(O)CCC/C=C\CC1C(O)CC(O)C1/C=C/C(O)COc1cccc(Cl)c1 (centres unmarked) [Cloprosténol, cloprosténol] | 3 | 13% | 18 | 1 | 1 | 78% | 4,5% | 4,5% |
| CC#C[C@]1(O)CC[C@H]2[C@@H]3CCC4=CC(=O)CCC4=C3[C@@H](c3ccc(N(C)C)cc3)C[C@@]21C [Produit A, 17béta-hydroxy 11béta-(4-diméthylaminophényl) 17alpha-(prop-1-ynyl) estra-4,9-dièn-3-one] | – | – | 22 | 1 | 1 | 92% | 4% | 4% |
